Results: PubChem BioAssay AID1745844 (Carcinogenic Potency Database (CPDB), 2022)
Activity calls are given as the source filed them. No rule for the calls is given here. Numbered stars: 1 amine (or outer) side, 2 acyl side, 3 side chain; on linkers, the order of the positions; unused ones are H or OH. Bridge positions count the residues as written; N and C are the ends. Square brackets hold non-standard residues; d marks the D form. Peptide text beside a SMILES is read from it. I, II: the chains in the order shown. Actinocin(9to1) = Cc1c2oc3c(C)ccc(C(=O)[*:1])c3nc-2c(C(=O)[*:2])c(N)c1=O; NMeV = CN[C@H](C(=O)O)C(C)C; Sar = CNCC(=O)O

System: rodent lifetime carcinogenesis bioassay, tumor incidence TD50
Assay: chronic cancer bioassays in animals – CPDB, compiled studies (AID 1745844)

## O=C(O)CNCC(=O)O
rat, strain MRC, females, in drinking water, site: any site (literature study), lesion: several types, types named in the paper, dosed 84 weeks, study length 104 weeks
  TD50: 143 mg/kg/day (inactive)
rat, strain MRC, males, in drinking water, site: any site (literature study), lesion: several types, types named in the paper, dosed 84 weeks, study length 104 weeks
  carcinogen call: negative (inactive)

## CCCCC/C=C\C/C=C\CCCCCCCC(=O)O[C@H](COC(=O)CCCCCCCCCCCCCCC)COP(=O)([O-])OCC[N+](C)(C)C
rat, strain Wistar, females, in feed, site: liver, lesion: nodular hyperplasia, dosed 104 weeks, study length 104 weeks
  carcinogen call: negative (inactive)
rat, strain Wistar, males, in feed, site: liver, lesion: cholangioma, dosed 104 weeks, study length 104 weeks
  TD50: 42200 mg/kg/day (inactive)

## CCN(CC)C(=S)S
mouse, strain B6AKF1, females, oral dosing, site: lung, lesion: adenoma, dosed 76 weeks, study length 76 weeks
  TD50: 607 mg/kg/day
mouse, strain B6AKF1, males, oral dosing, site: any site (literature study), lesion: several types, types named in the paper, dosed 76 weeks, study length 76 weeks
  TD50: 403 mg/kg/day
mouse, strain B6AKF1, males, oral dosing, site: lung, lesion: adenoma, dosed 76 weeks, study length 76 weeks
  TD50: 155 mg/kg/day
mouse, strain B6C3F1, females, in feed, site: any site (literature study), lesion: several types, types named in the paper, dosed 108 weeks, study length 108 weeks
  carcinogen call: negative (inactive)
mouse, strain B6C3F1, females, in feed, site: liver, lesion: hepatocellular adenoma + hepatocellular carcinoma + neoplastic nodule, dosed 108 weeks, study length 108 weeks
  TD50: 27000 mg/kg/day
mouse, strain B6C3F1, females, in feed, site: lung, lesion: alveolar/bronchiolar adenoma + alveolar/bronchiolar carcinoma, dosed 108 weeks, study length 108 weeks
  TD50: 4760 mg/kg/day
mouse, strain B6C3F1, males, in feed, site: any site (literature study), lesion: several types, types named in the paper, dosed 108 weeks, study length 108 weeks
  carcinogen call: negative (inactive)
mouse, strain B6C3F1, males, in feed, site: lung, lesion: alveolar/bronchiolar adenoma + alveolar/bronchiolar carcinoma, dosed 108 weeks, study length 108 weeks
  TD50: 10300 mg/kg/day
mouse, strain B6C3F1, males, oral dosing, site: any site (literature study), lesion: several types, types named in the paper, dosed 76 weeks, study length 76 weeks
  TD50: 71.4 mg/kg/day
mouse, strain B6C3F1, males, oral dosing, site: liver, lesion: hepatoma, dosed 76 weeks, study length 76 weeks
  TD50: 68.7 mg/kg/day
mouse, strain B6C3F1, males, oral dosing, site: lung, lesion: adenoma, dosed 76 weeks, study length 76 weeks
  TD50: 468 mg/kg/day
rat, strain Fischer 344, females, in feed, site: any site (literature study), lesion: several types, types named in the paper, dosed 104 weeks, study length 104 weeks
  carcinogen call: negative (inactive)
rat, strain Fischer 344, males, in feed, site: any site (literature study), lesion: several types, types named in the paper, dosed 104 weeks, study length 104 weeks
  carcinogen call: negative (inactive)

## Cc1c2oc3c(C)ccc(C(=O)N[C@@H]4C(=O)N[C@H](C(C)C)C(=O)N5CCC[C@H]5C(=O)N(C)CC(=O)N(C)[C@@H](C(C)C)C(=O)O[C@@H]4C)c3nc-2c(C(=O)N[C@@H]2C(=O)N[C@H](C(C)C)C(=O)N3CCC[C@H]3C(=O)N(C)CC(=O)N(C)[C@@H](C(C)C)C(=O)O[C@@H]2C)c(N)c1=O (I: T[dV]P[Sar][NMeV] / II: T[dV]P[Sar][NMeV]; ester I:1-I:C, II:1-II:C; linker I:N-II:N via Actinocin(9to1))
rat, strain Charles River CD (Sprague-Dawley), females, i.p., site: any site (literature study), lesion: malignant tumor, dosed 26 weeks, study length 78 weeks
  TD50: 0.00121 mg/kg/day
rat, strain Charles River CD (Sprague-Dawley), females, i.p., site: any site (literature study), lesion: several types, types named in the paper, dosed 26 weeks, study length 78 weeks
  TD50: 0.00145 mg/kg/day
rat, strain Charles River CD (Sprague-Dawley), females, i.p., site: lung, lesion: adenoma, dosed 26 weeks, study length 78 weeks
  TD50: 0.0501 mg/kg/day
rat, strain Charles River CD (Sprague-Dawley), females, i.p., site: peritoneum, lesion: sarcoma, dosed 26 weeks, study length 78 weeks
  TD50: 0.00199 mg/kg/day
rat, strain Charles River CD (Sprague-Dawley), males, i.p., site: all sites, lesion: lymphosarcoma, dosed 26 weeks, study length 78 weeks
  TD50: 0.0201 mg/kg/day
rat, strain Charles River CD (Sprague-Dawley), males, i.p., site: all sites, lesion: plasmacytoma, dosed 26 weeks, study length 78 weeks
  TD50: 0.0201 mg/kg/day
rat, strain Charles River CD (Sprague-Dawley), males, i.p., site: any site (literature study), lesion: malignant tumor, dosed 26 weeks, study length 78 weeks
  TD50: 0.000708 mg/kg/day
rat, strain Charles River CD (Sprague-Dawley), males, i.p., site: any site (literature study), lesion: several types, types named in the paper, dosed 26 weeks, study length 78 weeks
  TD50: 0.000501 mg/kg/day
rat, strain Charles River CD (Sprague-Dawley), males, i.p., site: liver, lesion: hemangioma, dosed 26 weeks, study length 78 weeks
  TD50: 0.0407 mg/kg/day
rat, strain Charles River CD (Sprague-Dawley), males, i.p., site: peritoneum, lesion: sarcoma, dosed 26 weeks, study length 78 weeks
  TD50: 0.000769 mg/kg/day

## O=NN1C[C@H](O)C[C@H]1C(=O)O
rat, strain MRC, females, in drinking water, site: any site (literature study), lesion: several types, types named in the paper, dosed 75 weeks, study length 104 weeks
  TD50: 3.84 mg/kg/day (inactive)
rat, strain MRC, males, in drinking water, site: any site (literature study), lesion: several types, types named in the paper, dosed 75 weeks, study length 104 weeks
  carcinogen call: negative (inactive)

## Cc1ccc(Cc2cnc(NCCSCc3ccc(CN(C)C)o3)[nH]c2=O)cn1
mouse, strain SK&F Swiss, females, by gavage, site: gastric mucosa, lesion: carcinoid tumor, malignant, dosed 91 weeks, study length 91 weeks
  carcinogen call: negative (inactive)
mouse, strain SK&F Swiss, males, by gavage, site: gastric mucosa, lesion: carcinoid tumor, malignant, dosed 91 weeks, study length 91 weeks
  carcinogen call: negative (inactive)
rat, strain SK&F Wistar, females, by gavage, site: gastric mucosa, lesion: carcinoid tumor, malignant, dosed 100 weeks, study length 100 weeks
  TD50: 2990 mg/kg/day
rat, strain SK&F Wistar, males, by gavage, site: gastric mucosa, lesion: carcinoid tumor, malignant, dosed 100 weeks, study length 100 weeks
  TD50: 3830 mg/kg/day

## Cc1cccc(C)c1
mouse, strain B6C3F1, females, by gavage, site: liver, lesion: hepatocellular adenoma + hepatocellular carcinoma + neoplastic nodule, dosed 103 weeks, study length 104 weeks
  TD50: 7040 mg/kg/day
mouse, strain B6C3F1, females, by gavage, site: lung, lesion: alveolar/bronchiolar adenoma + alveolar/bronchiolar carcinoma, dosed 103 weeks, study length 104 weeks
  TD50: 5130 mg/kg/day
mouse, strain B6C3F1, females, by gavage, site: thyroid gland, lesion: follicular-cell adenoma, dosed 103 weeks, study length 104 weeks
  TD50: 4790 mg/kg/day (inactive)
mouse, strain B6C3F1, males, by gavage, site: any site (literature study), lesion: several types, types named in the paper, dosed 103 weeks, study length 104 weeks
  carcinogen call: negative (inactive)
mouse, strain B6C3F1, males, by gavage, site: lung, lesion: alveolar/bronchiolar adenoma + alveolar/bronchiolar carcinoma, dosed 103 weeks, study length 104 weeks
  TD50: 7600 mg/kg/day
rat, strain Fischer 344, females, by gavage, site: any site (literature study), lesion: several types, types named in the paper, dosed 103 weeks, study length 104 weeks
  TD50: 1930 mg/kg/day
rat, strain Fischer 344, females, by gavage, site: liver, lesion: hepatocellular adenoma + hepatocellular carcinoma + neoplastic nodule, dosed 103 weeks, study length 104 weeks
  TD50: 51300 mg/kg/day
rat, strain Fischer 344, females, by gavage, site: mammary gland, lesion: adenoma, NOS, dosed 103 weeks, study length 104 weeks
  TD50: 4110 mg/kg/day (inactive)
rat, strain Fischer 344, males, by gavage, site: any site (literature study), lesion: several types, types named in the paper, dosed 103 weeks, study length 104 weeks
  TD50: 700 mg/kg/day (inactive)
rat, strain Sprague-Dawley, females, by gavage, site: all sites, lesion: lymphoma and leukemia, combined, dosed 104 weeks, study length 123 weeks
  TD50: 4170 mg/kg/day
rat, strain Sprague-Dawley, females, by gavage, site: all sites, lesion: lymphoma and leukemia, combined, dosed 104 weeks, study length 141 weeks
  TD50: 5170 mg/kg/day
rat, strain Sprague-Dawley, females, by gavage, site: any site (literature study), lesion: malignant tumor, dosed 104 weeks, study length 123 weeks
  TD50: 1870 mg/kg/day
rat, strain Sprague-Dawley, females, by gavage, site: any site (literature study), lesion: malignant tumor, dosed 104 weeks, study length 141 weeks
  TD50: 524 mg/kg/day
rat, strain Sprague-Dawley, females, by gavage, site: any site (literature study), lesion: several types, types named in the paper, dosed 104 weeks, study length 141 weeks
  TD50: 304 mg/kg/day
rat, strain Sprague-Dawley, females, by gavage, site: ear duct, lesion: carcinoma, dosed 104 weeks, study length 123 weeks
  TD50: 18000 mg/kg/day
rat, strain Sprague-Dawley, females, by gavage, site: head, lesion: carcinoma, dosed 104 weeks, study length 123 weeks
  TD50: 5620 mg/kg/day
rat, strain Sprague-Dawley, females, by gavage, site: head, lesion: carcinoma, dosed 104 weeks, study length 141 weeks
  TD50: 2830 mg/kg/day
rat, strain Sprague-Dawley, females, by gavage, site: mammary tissue, wider than the gland, lesion: carcinoma, dosed 104 weeks, study length 141 weeks
  TD50: 1750 mg/kg/day
rat, strain Sprague-Dawley, females, by gavage, site: oral cavity, lesion: carcinoma, dosed 104 weeks, study length 123 weeks
  TD50: 5860 mg/kg/day
rat, strain Sprague-Dawley, males, by gavage, site: Zymbal's gland, lesion: carcinoma, dosed 104 weeks, study length 141 weeks
  TD50: 58400 mg/kg/day
rat, strain Sprague-Dawley, males, by gavage, site: all sites, lesion: lymphoma and leukemia, combined, dosed 104 weeks, study length 123 weeks
  TD50: 8150 mg/kg/day
rat, strain Sprague-Dawley, males, by gavage, site: all sites, lesion: lymphoma and leukemia, combined, dosed 104 weeks, study length 141 weeks
  TD50: 4170 mg/kg/day
rat, strain Sprague-Dawley, males, by gavage, site: any site (literature study), lesion: malignant tumor, dosed 104 weeks, study length 123 weeks
  TD50: 1820 mg/kg/day
rat, strain Sprague-Dawley, males, by gavage, site: any site (literature study), lesion: malignant tumor, dosed 104 weeks, study length 141 weeks
  TD50: 1670 mg/kg/day
rat, strain Sprague-Dawley, males, by gavage, site: any site (literature study), lesion: several types, types named in the paper, dosed 104 weeks, study length 123 weeks
  TD50: 4070 mg/kg/day
rat, strain Sprague-Dawley, males, by gavage, site: ear duct, lesion: carcinoma, dosed 104 weeks, study length 123 weeks
  TD50: 18300 mg/kg/day
rat, strain Sprague-Dawley, males, by gavage, site: head, lesion: carcinoma, dosed 104 weeks, study length 123 weeks
  TD50: 3440 mg/kg/day
rat, strain Sprague-Dawley, males, by gavage, site: head, lesion: carcinoma, dosed 104 weeks, study length 141 weeks
  TD50: 5170 mg/kg/day
rat, strain Sprague-Dawley, males, by gavage, site: oral cavity, lesion: carcinoma, dosed 104 weeks, study length 123 weeks
  TD50: 4440 mg/kg/day
rat, strain Sprague-Dawley, males, by gavage, site: oral cavity, lesion: carcinoma, dosed 104 weeks, study length 141 weeks
  TD50: 5820 mg/kg/day

## CC(=O)NNC(C)=O
mouse, strain Swiss, females, by gavage, site: lung, lesion: several types, types named in the paper, dosed 34 weeks, study length 95 weeks
  carcinogen call: negative (inactive)
mouse, strain Swiss, females, by gavage, site: lung, lesion: several types, types named in the paper, dosed 95 weeks, study length 95 weeks
  carcinogen call: negative (inactive)
mouse, strain Swiss, males, by gavage, site: lung, lesion: several types, types named in the paper, dosed 34 weeks, study length 95 weeks
  TD50: 144 mg/kg/day (inactive)
mouse, strain Swiss, males, by gavage, site: lung, lesion: several types, types named in the paper, dosed 95 weeks, study length 95 weeks
  TD50: 411 mg/kg/day (inactive)
